In ChEMBL document CHEMBL3045095, “Synthesis and biological evaluation of some Schiff bases of 4-amino-5-(4-methylsulfonyl)benzyl-2,4-dihydro-3H-[1,2,4]-triazole-3-thione” (Med Chem Res, 2013):
Converted amounts (≈) assume the structure as drawn. The source made the active and inactive calls. The rule behind the calls is not given here.

Columns and labels:
HeLa [1] = assay: Cytotoxicity against Homo sapiens (human) HeLa cells after 48 hr by MTT assay; type: functional, cell-based
Bacillus cereus = assay: Antibacterial activity against Bacillus cereus after 16 to 18 hr by serial dilution method; type: functional
Escherichia coli = assay: Antibacterial activity against Escherichia coli after 16 to 18 hr by serial dilution method; type: functional
HeLa [2] = assay: Cytotoxicity against Homo sapiens (human) HeLa cells assessed as cell death at 100 uM after 48 hr by MTT assay; type: functional
Staphylococcus aureus = assay: Antibacterial activity against Staphylococcus aureus after 16 to 18 hr by serial dilution method; type: functional
Candida albicans = assay: Antifungal activity against Candida albicans after 16 to 18 hr by serial dilution method; type: functional
HeLa [3] = assay: Cytotoxicity against Homo sapiens (human) HeLa cells assessed as cell death at 50 uM after 48 hr by MTT assay; type: functional
HeLa [4] = assay: Cytotoxicity against Homo sapiens (human) HeLa cells assessed as cell death at 12.5 uM after 48 hr by MTT assay; type: functional
Pseudomonas aeruginosa = assay: Antibacterial activity against Pseudomonas aeruginosa after 16 to 18 hr by serial dilution method; type: functional
HeLa [5] = assay: Cytotoxicity against Homo sapiens (human) HeLa cells assessed as cell death at 25 uM after 48 hr by MTT assay; type: functional
HeLa [6] = assay: Cytotoxicity against Homo sapiens (human) HeLa cells assessed as cell death at 2.5 uM after 48 hr by MTT assay; type: functional

SMILES	EC50 (HeLa [1]) [µM]	MIC (Bacillus cereus) [µg/mL]	MIC (Escherichia coli) [µg/mL]	Activity (HeLa [2]) [%]	MIC (Staphylococcus aureus) [µg/mL]	MIC (Candida albicans) [µg/mL]	Activity (HeLa [3]) [%]	Activity (HeLa [4]) [%]	MIC (Pseudomonas aeruginosa) [µg/mL]	Activity (HeLa [5])	Activity (HeLa [6]) [%]
CS(=O)(=O)c1ccc(Cc2n[nH]c(=S)n2/N=C/c2cccs2)cc1	100	12.5 (≈ 33 µM)	3.12 (≈ 8.26 µM)	61.09	12.5 (≈ 33 µM)	3.12 (≈ 8.26 µM)	48.59	28.69	6.25 (≈ 16.5 µM)	33.33%	
CS(=O)(=O)c1ccc(Cc2n[nH]c(=S)n2/N=C/c2ccc(Cl)cc2)cc1	50	6.25 (≈ 15.4 µM)	12.5 (≈ 30.7 µM)	57.04	6.25 (≈ 15.4 µM)	1.56 (≈ 3.84 µM)	53.99	44.73	6.25 (≈ 15.4 µM)	47.51%	
CS(=O)(=O)c1ccc(Cc2n[nH]c(=S)n2/N=C/c2c(F)cccc2Cl)cc1	25	3.12 (≈ 7.35 µM)	6.25 (≈ 14.7 µM)	77.28	6.25 (≈ 14.7 µM)	3.12 (≈ 7.35 µM)	70.55	49.84	3.12 (≈ 7.35 µM)	55.32%	
CS(=O)(=O)c1ccc(Cc2n[nH]c(=S)n2/N=C/c2ccc(-c3ccccc3)cc2)cc1	50	6.25 (≈ 13.9 µM)	3.12 (≈ 6.97 µM)	69.54	6.25 (≈ 13.9 µM)	6.25 (≈ 13.9 µM)	61.56	30.44	6.25 (≈ 13.9 µM)	37.32%	
CS(=O)(=O)c1ccc(Cc2n[nH]c(=S)n2/N=C/c2cccnc2)cc1	> 100	12.5 (≈ 33.5 µM)	6.25 (≈ 16.7 µM)	45.1	6.25 (≈ 16.7 µM)	6.25 (≈ 16.7 µM)	14	16.89	6.25 (≈ 16.7 µM)	19.36%	
CS(=O)(=O)c1ccc(Cc2n[nH]c(=S)n2/N=C/c2ccc(F)cc2)cc1	100	6.25 (≈ 16 µM)	6.25 (≈ 16 µM)	57.79	12.5 (≈ 32 µM)	3.12 (≈ 8 µM)	26.25	2.8	6.25 (≈ 16 µM)	inactive	
COc1cccc2c1C(=O)c1c(O)c3c(c(O)c1C2=O)C[C@@](O)(C(=O)CO)C[C@@H]3O[C@H]1C[C@H](N)[C@H](O)[C@H](C)O1 [DOXORUBICIN]	2.5										78.2
COc1ccc2cc(/C=N/n3c(Cc4ccc(S(C)(=O)=O)cc4)n[nH]c3=S)ccc2c1	50	6.25 (≈ 13.8 µM)	6.25 (≈ 13.8 µM)	64.6	6.25 (≈ 13.8 µM)	6.25 (≈ 13.8 µM)	54.13	43.71	6.25 (≈ 13.8 µM)	42.01%	
CS(=O)(=O)c1ccc(Cc2n[nH]c(=S)n2/N=C/c2ccccc2F)cc1	> 100	3.12 (≈ 8 µM)	3.12 (≈ 8 µM)	28.08	6.25 (≈ 16 µM)	3.12 (≈ 8 µM)	21.9	16.48	6.25 (≈ 16 µM)	14.03%	
CC1(C)S[C@@H]2[C@H](NC(=O)Cc3ccccc3)C(=O)N2[C@H]1C(=O)O [PENICILLIN G]		0.097 (≈ 0.29 µM)	0.097 (≈ 0.29 µM)		0.097 (≈ 0.29 µM)				0.097 (≈ 0.29 µM)		
OC(Cn1cncn1)(Cn1cncn1)c1ccc(F)cc1F [FLUCONAZOLE]						0.78 (≈ 2.55 µM)					
CSc1ccc(/C=N/n2c(Cc3ccc(S(C)(=O)=O)cc3)n[nH]c2=S)cc1	50	3.12 (≈ 7.47 µM)	3.12 (≈ 7.47 µM)	71.86	3.12 (≈ 7.47 µM)	3.12 (≈ 7.47 µM)	57.5	27.94	3.12 (≈ 7.47 µM)	32.66%	
CS(=O)(=O)c1ccc(Cc2n[nH]c(=S)n2/N=C/c2ccccc2Cl)cc1		6.25 (≈ 15.4 µM)	6.25 (≈ 15.4 µM)	76.53	12.5 (≈ 30.7 µM)	3.12 (≈ 7.68 µM)	42.65	34.65	3.12 (≈ 7.68 µM)	36.26%	
